From patent US12091385B2, “Pyridinylcyanoguanidine derivative and use thereof” (Rushi Biotech (Hangzhou) Co., Ltd, priority 2021, dated 2024)

Key:
Assay type in all cases: cell-based
[1] = test system: Human lung adenocarcinoma cell A549; assay: CCK-8 cell proliferation assay, A549; conditions: A549 cells, 72 hrs with drug, CCK-8, OD 450 nm
Method: (§1) The effect of samples on the proliferation of human tumor cells in vitro was determined by CCK-8 cell proliferation assay.
(§2) The cells were assayed through a method including the following steps: • 1) The cells were digested, counted, and prepared into a cell suspension in a corresponding culture medium (Table 1) (5×10^4 cells/ml for CFPAC-1 and RPMI 8226, and 3.5×10^4 cells/ml for rest cells). The cell suspension was added to each well of a 96-well plate in 100 μl/well. • 2) Then the 96-well plate was incubated for 24 hrs in an incubator at 37° C. and 5% CO2. • 3) The drug was diluted with the culture medium to the required working concentration. 100 μl of the corresponding drug containing medium was added to each well.

[2] = test system: Human hepatoma cell HepG2; assay: CCK-8 cell proliferation assay, HepG2; conditions: HepG2 cells, 72 hrs with drug, CCK-8, OD 450 nm
Method: as §1, §2

[3] = test system: Human esophageal cancer cell TE-1; assay: CCK-8 cell proliferation assay, TE-1; conditions: TE-1 cells, 72 hrs with drug, CCK-8, OD 450 nm
Method: as §1, §2

[4] = test system: Human gastric cancer cell MKN45; assay: CCK-8 cell proliferation assay, MKN45; conditions: MKN-45 cells, 72 hrs with drug, CCK-8, OD 450 nm
Method: as §1, §2

[5] = test system: Human colon cancer cell HCT-116; assay: CCK-8 cell proliferation assay, HCT-116; conditions: HCT116 cells, 72 hrs with drug, CCK-8, OD 450 nm
Method: as §1, §2

[6] = test system: Human multiple myeloma cell RPMI 8226; assay: CCK-8 cell proliferation assay, RPMI 8226; conditions: RPMI8226 cells, 72 hrs with drug, CCK-8, OD 450 nm
Method: as §1, §2

[7] = test system: Human pancreatic cancer cell CFPAC-1; assay: CCK-8 cell proliferation assay, CFPAC-1; conditions: CFPAC-1 cells, 72 hrs with drug, CCK-8, OD 450 nm
Method: as §1, §2

Structure (SMILES) | IC50 [1] [nM] | IC50 [2] [nM] | IC50 [3] [nM] | IC50 [4] [nM] | IC50 [5] [nM] | IC50 [6] [nM] | IC50 [7] [nM]
N#CN=C(NCCCCCCC1CCN(C(=O)c2cc3ccccc3[nH]2)C1)Nc1ccncc1 (stereo not drawn) [BSS-PC071, 2-cyano-1-(6-(1-(2-indolylformyl)pyrrolidine-3-yl)hexyl)-3-(4-pyridinyl)guanidine] | 75 | 153 | 106 | 65 | 72 | 49 | 61
N#CN=C(NCCCCCCC1CCN(C(=O)C2CCCS2)C1)Nc1ccncc1 (stereo not drawn) [BSS-PC058, 2-cyano-1-(6-(1-(2-tetrahydrothienylformyl)pyrrolidine-3-yl)hexyl)-3-(4-pyridinyl)guanidine] | 42 | 75 | 71 | 69 | 82 | 43 | 52
COc1cccc(OC)c1C(=O)N1CCC(CCCCCNC(=NC#N)Nc2ccncc2)C1 (stereo not drawn) [BSS-PC031, 2-cyano-1-(5-(1-(2,6-dimethoxybenzoyl)pyrrolidine-3-yl)pentyl)-3-(4-pyridinyl)guanidine] | 42 | 109 | 94 | 37 | 49 | 23 | 27
COc1cccc(OC)c1C(=O)N1CCN(CCCCCNC(=NC#N)Nc2cccnc2)CC1 [BSS-PC027, 2-cyano-1-(5-(1-(2,6-dimethoxybenzoyl)piperazine-4-yl)pentyl)-3-(3-pyridinyl)guanidine] | 63 | 69 | 92 | 47 | 81 | 40 | 49
N#CN=C(NCCCCCN1CCN(C(=O)c2cccs2)CC1)Nc1cccnc1 [BSS-PC018, 2-cyano-1-(5-(1-(2-thienylformyl)piperazine-4-yl)pentyl)-3-(3-pyridinyl)guanidine] | 74 | 77 | 85 | 60 | 95 | 28 | 35
O=C(/C=C/c1cccnc1)NCCCCC1CCN(C(=O)c2ccccc2)CC1 [FK866, reference compound] | 37 | 99 | 112 | 39 | 92 | 20 | 37
N#CN=C(NCCCCCCC1CCN(C(=O)c2ccco2)C1)Nc1cc(F)nc(F)c1 (stereo not drawn) [BSS-PC076] | 33 | 42 | 46 | 45 | 53 | 26 | 29
N#CN=C(NCCCCCCC1CCN(C(=O)c2cccs2)C1)Nc1cccnc1 (stereo not drawn) [BSS-PC060, 2-cyano-1-(6-(1-(2-thienylformyl)pyrrolidine-3-yl)hexyl)-3-(3-pyridinyl)guanidine] | 31 | 101 | 85 | 78 | 97 | 38 | 31
N#CN=C(NCCCCCC1CCN(C(=O)c2cccs2)C1)Nc1ccncc1 (stereo not drawn) [BSS-PC029, 2-cyano-1-(5-(1-(2-thienylformyl)pyrrolidine-3-yl)pentyl)-3-(4-pyridinyl)guanidine] | 35 | 64 | 66 | 36 | 52 | 19 | 34
N#CN=C(NCCCCCC1CCN(C(=O)c2ccco2)C1)Nc1cccnc1 (stereo not drawn) [BSS-PC051] | 51 | 42 | 40 | 31 | 39 | 27 | 33
N#CN=C(NCCCCCN1CCN(C(=O)c2occc2F)CC1)Nc1ccncc1 [BSS-PC023, 2-cyano-1-(5-(1-(3-fluoro-2-furylformyl)piperazine-4-yl)pentyl)-3-(4-pyridinyl)guanidine] | 42 | 57 | 43 | 430 | 52 | 30 | 39
N#CN=C(NCCCCCCC1CCN(C(=O)c2ccccc2)C1)Nc1ccncc1 (stereo not drawn) [BSS-PC054, 2-cyano-1-(6-((1-benzoyl)pyrrolidine-3-yl)hexyl)-3-(4-pyridinyl)guanidine] | 33 | 57 | 46 | 49 | 52 | 30 | 39
N#CN=C(NCCCCCC1CCN(C(=O)c2ccccc2)C1)Nc1cccnc1 (stereo not drawn) [BSS-PC044, 2-cyano-1-(5-((1-benzoyl)pyrrolidine-3-yl)pentyl)-3-(3-pyridinyl)guanidine] | 41 | 42 | 34 | 53 | 40 | 20 | 38
N#CN=C(NCCCCCN1CCN(C(=O)c2ccco2)CC1)Nc1cccnc1 [BSS-PC026, 2-cyano-1-(5-((1-furoyl)piperazine-4-yl)pentyl)-3-(3-pyridinyl)guanidine] | 32 | 55 | 72 | 30 | 73 | 20 | 31
N#CN=C(NCCCCCCC1CCN(C(=O)c2ccc[nH]2)C1)Nc1cccnc1 (stereo not drawn) [BSS-PC061, 2-cyano-1-(6-(1-(2-pyrrolylformyl)pyrrolidine-3-yl)hexyl)-3-(3-pyridinyl)guanidine] | 57 | 122 | 103 | 65 | 87 | 33 | 45
N#CN=C(NCCCCCN1CCN(C(=O)C2CCCS2)CC1)Nc1ccncc1 (stereo not drawn) [BSS-PC009, 2-cyano-1-(5-(1-(2-tetrahydrothienylformyl)piperazine-4-yl)pentyl)-3-(4-pyridinyl)guanidine] | 71 | 85 | 81 | 68 | 92 | 43 | 58
N#CN=C(NCCCCCN1CCN(C(=O)c2[nH]ccc2F)CC1)Nc1ccncc1 [BSS-PC024, 2-cyano-1-(5-(1-(3-fluoro-2-pyrrolylformyl)piperazine-4-yl)pentyl)-3-(4-pyridinyl)guanidine] | 53 | 51 | 49 | 41 | 50 | 21 | 37
N#CN=C(NCCCCCN1CCN(C(=O)C2CCCO2)CC1)Nc1ccncc1 (stereo not drawn) [BSS-PC011] | 40 | 52 | 47 | 61 | 49 | 42 | 39
N#CN=C(NCCCCCN1CCN(C(=O)c2cc3ccccc3o2)CC1)Nc1ccncc1 [BSS-PC022, 2-cyano-1-(5-(1-(2-benzofurylformyl)piperazine-4-yl)pentyl)-3-(4-pyridinyl)guanidine] | 70 | 88 | 83 | 65 | 81 | 52 | 59
N#CN=C(NCCCCCN1CCN(C(=O)c2cc3ccccc3[nH]2)CC1)Nc1ccncc1 [BSS-PC020, 2-cyano-1-(5-(1-(2-indolylformyl)piperazine-4-yl)pentyl)-3-(4-pyridinyl)guanidine] | 61 | 72 | 93 | 51 | 85 | 35 | 57
N#CN=C(NCCCCCCC1CCN(C(=O)c2ccco2)C1)Nc1ccncc1 (stereo not drawn) [BSS-PC057, 2-cyano-1-(6-(1-(furoyl)pyrrolidine-3-yl)hexyl)-3-(4-pyridinyl)guanidine] | 53 | 64 | 60 | 31 | 69 | 51 | 37
N#CN=C(NCCCCCCC1CCN(C(=O)c2cccs2)C1)Nc1ccncc1 (stereo not drawn) [BSS-PC053, 2-cyano-1-(6-(1-(2-thienylformyl)pyrrolidine-3-yl)hexyl)-3-(4-pyridinyl)guanidine] | 25 | 31 | 30 | 34 | 43 | 22 | 22
N#CN=C(NCCCCCCC1CCN(C(=O)c2ccccc2)C1)Nc1cccnc1 (stereo not drawn) [BSS-PC059, 2-cyano-1-(6-((1-benzoyl)pyrrolidine-3-yl)hexyl)-3-(3-pyridinyl)guanidine] | 43 | 92 | 99 | 47 | 86 | 35 | 46
N#CN=C(NCCCCCC1CCN(C(=O)c2ccc[nH]2)C1)Nc1ccncc1 (stereo not drawn) [BSS-PC033, 2-cyano-1-(5-(1-(2-pyrrolylformyl)pyrrolidine-3-yl)pentyl)-3-(4-pyridinyl)guanidine] | 51 | 76 | 67 | 33 | 42 | 17 | 29
